The results in this text go back to patent US4314063A, “1-Ethyl-1,4,5,6-tetrahydro-6-(2-naphthyl)-4-oxo-nicotinic acid and lower alkyl esters thereof” (Hoffmann-La Roche Inc., priority 1981, dated 1982).

Type in all cases: in vivo
Data set [1] is described as follows: LD50 (mouse), acute toxicity. As to conditions: in vivo, mouse.
The next data set concerns mouse. As to the kind of experiment: LD50 (mouse), acute toxicity. As to conditions: in words.
In the next data set the test system is rats. Kind of data set: Turning rat test (rotation in rats with unilateral 6-OHDA lesion of the medial forebrain bundle). As to conditions: for minimal effective dose: Rattus norvegicus, ip, 1 h, i.p., active = more than 100 turns/hour, 5 rats per dose, read-out: Turning rat test minimum active dosage. On the procedure: Female rats weighing 150 g are anaesthetised with pentobarbital (50 mg kg^-1 i.p.) and fixed in a stereotaxic apparatus (David Kopf). A unilateral (right side) injection into the MFB (medial forebrain bundle) of 6-OHDA (6-hydroxy-dopamine), 3 μg as base, dissolved in 4 μl of Ringer solution containing 0.02% ascorbic acid, is carried out through a stainless-steel cannula (diameter 0.3 mm) connected to a microsyringe. The liquid is injected at a speed of 1 μl min^-1 by means of a high precision infusion pump. In order to reach the MFB (medial forebrain bundle), the following coordinates are used: A=+3.8 mm, L (right)=0.9 mm, V=-3 mm according to the Atlas of Konig and Klippel.
After 3 weeks recovery period, the operated rats are injected with apomorphine, 1 mg kg^1- i.p. Those animals showing a regular contralateral (i.e., away from the lesioned side) turning, recorded automatically during 1 hour in a rotometer, are selected for further experiments. At least one week is allowed between each injection of screening compounds.
Drugs which induce rotation are dopamine receptor agonists. If the turning is contralateral (i.e., away from the lesioned side) the drugs are classified as "apomorphine-like", which indicates a direct dopamine-receptor stimulation (postsynaptic). The denervated striatum is more sensitive to dopamine receptor agonistes than the intact one. Agonists therefore affect the denervated striatum more than the intact one. This inbalance results in contralateral turning (rotation).
If the rotation is ipsilateral (i.e., towards the lesioned side), the drugs are classified as "amphetamine-like", which means that they release and/or block the reuptake of dopamine (presynaptic) from nerve terminals on the intact side, whereas they have little if any effect on the striatum with denervated dopamine neurons. The result of this inbalance is an ipsilateral turning.
The total number of ipsilateral or contralateral turns (full rotation around the vertical axes of the body) made by each rat, is automatically recorded over the time (usually 1 hour). 5 rats are injected for each dose and the mean of total turns per hour is determined.
A compound is said active, if it produces more than 100 turns/hour. If a drug induces rotation, but less than 100 turns/hour, it is indicated as slightly active. […] The results are expressed as: […]
Minimal effective dose--if the drug is active

Structures are written as SMILES. Structures can show the parent of a compound that is named as a salt.

Consider `CCn1cc(C(=O)O)c(=O)cc1-c1ccc2ccccc2c1` [1-ethyl-1,4-dihydro-6-(2-naphthyl)-4-oxonicotinic acid], for which the LD50 (as a rule, the dose at which mortality reaches 50%) in data set [1] (po) worked out at 170 mg/kg. The “LD50 compared with d-amphetamine and d-methamphetamine” value in the data set on mouse (versus d-amphetamine and d-methamphetamine) is “substantially lower LD50”. Also, the “LD50 compared with nomifensin” value in the data set with mouse (versus nomifensin) is “about the same LD50”. Besides, the minimal effective dose with rats was 1 mg/kg. Besides, the “strength of action compared with d-amphetamine and d-methamphetamine” value in the data set on rats (in words, versus d-amphetamine and d-methamphetamine, see Table I) was “about the same strength of action”. The “action compared with nomifensin” value in the data set with rats (in words, versus nomifensin, see Table I) was “substantially superior to nomifensin”.

Take `CN1Cc2c(N)cccc2C(c2ccccc2)C1` (stereo not drawn) [Nomifensin, 8-amino-1,2,3,4-tetrahydro-2-methyl-4-phenylisoquinoline]: in data set [1] (po), the LD50 was 300 to 600 mg/kg. Moreover, the minimal effective dose in the data set on rats came out at 3 mg/kg.

Take `C[C@H](N)Cc1ccccc1` [d-Amphetamine . 1/2 H2 SO4]: the LD50 was 14 mg/kg in data set [1] (iv), 35 mg/kg in data set [1] (po) and 22 mg/kg in data set [1] (sc). Further, the minimal effective dose in the data set with rats stood at 1 mg/kg.

`CN[C@@H](C)Cc1ccccc1` [d-Methamphetamine . HCl]: the LD50 in data set [1] (iv) came to 9.5 mg/kg; in data set [1] (sc), 14 mg/kg. The minimal effective dose with rats is 1 mg/kg.
